This note sets out measurements from ChEMBL document CHEMBL3046709, “Substituted aminoalcohol ester analogs of indomethacin with reduced toxic effects” (Med Chem Res, 2007).

Counter-ions that a name gives are not always drawn.

Data set [1] has as its system Mus musculus. Briefly: Analgesic activity in Mus musculus (mouse) assessed as inhibition of acetic acid-induced writhing at 15 mg/kg, po administered 1 hr prior to acetic acid challenge measured at 5 to 20 min relative to control. It counts as functional. (In general: In writhing tests, fewer writhes than in controls are read as antinociception.)
Data set [2] relates to Rattus norvegicus. Put plainly: Ulcerogenic activity in 36 hr fasting Rattus norvegicus Sprague-Dawley (rat) stomach assessed as ulcer index at 25 mg/kg, po measured after 4 hr. Format: toxicity, organism-based. Also noted: dose 25 mg/kg, route oral. The note with it: in vivo.
In data set [3] the test system is Rattus norvegicus. Briefly: Anti-inflammatory activity in Rattus norvegicus Sprague-Dawley (rat) assessed as inhibition of carrageenan-induced paw edema at 3 mg/kg, po administered 1 hr prior to carrageenan-challenge measured after 3 hr by plethysmometric analysis relative to control. Format: functional. (In general: In the carrageenan paw model, swelling and tenderness develop within hours.)

Data set [4] relates to Rattus norvegicus. Put plainly: Anticholinergic activity in po dosed overnight fasted Rattus norvegicus (rat) ileum. Format: functional. The note with it: read-out: pA2 (converted).
Data set [5] in a line: Half life in aqueous buffer at 1 mg/ml at pH 7.4 measured for 6 hr. Format: ADME.

In the case of `COc1ccc2c(c1)c(CC(=O)OCCN1CCOCC1)c(C)n2C(=O)c1ccc(Cl)cc1`, in data set [1], the inhibition in vivo – broadly, the drop in the measured response relative to a control, in per cent – at 15 mg/kg was determined as 35.5%. In data set [2], the UI was determined as 0.259. Also, the inhibition in vivo at 3 mg/kg in data set [3] was 23.1%. In addition, in data set [4], the Kb was 6.92 µM. In addition, the half-life (usually the time in which the quantity being followed falls by half) at 1 mg/ml in data set [5] is 52 h.

For the molecule `COc1ccc2c(c1)c(CC(=O)OCCN1CCCC1)c(C)n2C(=O)c1ccc(Cl)cc1`, the inhibition in vivo at 15 mg/kg in data set [1] turned out to be 37.2%. In addition, the UI in data set [2] stood at 0.341. Besides, the inhibition in vivo at 3 mg/kg in data set [3] is 37.5%. Further, the Kb in data set [4] is 12 µM. The half-life at 1 mg/ml in data set [5] is 99 h.

Turning to `CN1C2CCC1CC(OC(=O)C(CO)c1ccccc1)C2` (stereo not drawn) [ENDO-ATROPINE SULFATE], in data set [4], the Kb is 0.00631 µM.

Turning to `CCN(CC)CCOC(=O)Cc1c(C)n(C(=O)c2ccc(Cl)cc2)c2ccc(OC)cc12`, in data set [1], the inhibition in vivo at 15 mg/kg was 23%. The UI in data set [2] came out at 0.317. Moreover, in data set [3], the inhibition in vivo at 3 mg/kg was 34.6%. Moreover, the Kb in data set [4] was 32.4 µM. This molecule showed a half-life at 1 mg/ml in data set [5] of 39 h.

As for `COc1ccc2c(c1)c(CC(=O)OCCN1CCCCC1)c(C)n2C(=O)c1ccc(Cl)cc1`, the inhibition in vivo at 15 mg/kg in data set [1] was 35%. Besides, in data set [2], the UI was 0.134. In data set [3], the inhibition in vivo at 3 mg/kg was determined as 16.6%. The Kb in data set [4] is 9.12 µM. For the same molecule, in data set [5], the half-life at 1 mg/ml was 66 h.

In the case of `COc1ccc2c(c1)c(CC(=O)O)c(C)n2C(=O)c1ccc(Cl)cc1` [INDOMETHACIN], the inhibition in vivo at 15 mg/kg in data set [1] is 42.1%. Further, in data set [2], the UI is recorded as 0.547. In data set [3], the inhibition in vivo at 3 mg/kg came out at 45.4%.

Take `COc1ccc2c(c1)c(CC(=O)OCCN(C)C)c(C)n2C(=O)c1ccc(Cl)cc1`: in data set [1], the inhibition in vivo at 15 mg/kg is 39.9%. Also, the UI in data set [2] worked out at 0.149. Moreover, in data set [3], the inhibition in vivo at 3 mg/kg is 46.7%. For the same molecule, the Kb in data set [4] is 6.46 µM. Also, the half-life at 1 mg/ml in data set [5] was 34 h.
